According to ChEMBL document CHEMBL1782041, “Novel non-peptide beta-secretase inhibitors derived from structure-based virtual screening and bioassay” (Bioorg Med Chem Lett, 2009):
Peptide text beside a SMILES is read from it.

How the values were obtained:
Beta-secretase 1 [1] = target: T1, Beta-secretase 1 (Homo sapiens, UniProt P56817); test: Inhibition of BACE1 using peptide substrate Rh-EVNLDAEFKQuencher at 100 uM by fluorescence resonance energy transfer (FRET) assay
Beta-secretase 1 [2] = target: T1, Beta-secretase 1; test: Inhibition of BACE1 using peptide substrate Rh-EVNLDAEFKQuencher by fluorescence resonance energy transfer (FRET) assay

T1 sequence (P56817 whole entry): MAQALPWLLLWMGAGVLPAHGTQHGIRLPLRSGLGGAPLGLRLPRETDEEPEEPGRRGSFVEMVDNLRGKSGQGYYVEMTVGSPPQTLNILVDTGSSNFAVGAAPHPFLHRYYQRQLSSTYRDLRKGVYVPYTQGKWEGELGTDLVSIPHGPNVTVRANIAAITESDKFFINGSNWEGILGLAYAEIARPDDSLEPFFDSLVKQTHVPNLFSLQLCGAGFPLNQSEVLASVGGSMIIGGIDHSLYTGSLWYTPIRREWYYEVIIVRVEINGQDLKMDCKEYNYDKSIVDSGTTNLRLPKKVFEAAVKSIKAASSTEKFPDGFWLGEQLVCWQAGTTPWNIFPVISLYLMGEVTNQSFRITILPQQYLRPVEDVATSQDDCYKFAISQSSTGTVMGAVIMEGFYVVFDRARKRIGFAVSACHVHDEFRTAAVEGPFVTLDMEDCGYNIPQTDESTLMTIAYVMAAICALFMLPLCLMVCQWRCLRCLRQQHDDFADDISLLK

For `N#Cc1c(-c2ccc(F)cc2)cc(-c2ccccc2)nc1SCC(=O)NC12CC3CC(CC(C3)C1)C2`, the inhibition (Beta-secretase 1 [1]) was 45% and the IC50 (Beta-secretase 1 [2]) was 118 µM.
`O=C(Nc1ncc(Cc2cccc(Cl)c2Cl)s1)c1ccc(CSc2nnc(-c3ccncc3)n2-c2ccccc2)cc1` was tested, and the inhibition (Beta-secretase 1 [1]) was 78% and the IC50 (Beta-secretase 1 [2]) was > 100 µM.
In the case of `O=S(=O)(c1ccc(Br)cc1)N(c1cnn(Cc2ccc(Cl)c(Cl)c2)c1)S(=O)(=O)c1ccc(Br)cc1`, the inhibition (Beta-secretase 1 [1]) is reported as 50% and the IC50 (Beta-secretase 1 [2]) is reported as 90 µM.
Work on `Cc1ccc(NC(=O)Cc2nnc(SCC(=O)Nc3nc(-c4ccccc4)cs3)n2C)cc1` yielded an inhibition (Beta-secretase 1 [1]) of 83% and an IC50 (Beta-secretase 1 [2]) of 21 µM.
`COc1ccc(CCNC(=O)CSc2nc3ccc(Nc4nc(N5CCCCC5)nc(N5CCCCC5)n4)cc3s2)cc1OC` was tested, and the inhibition (Beta-secretase 1 [1]) was 80% and the IC50 (Beta-secretase 1 [2]) was 2.8 µM.
`Cc1nn(-c2ccccc2)c(Cl)c1C1Nc2ccccc2-c2nnc(SCc3ccccc3)nc2O1` (configuration not stated) was tested, and the inhibition (Beta-secretase 1 [1]) was 48% and the IC50 (Beta-secretase 1 [2]) was 100 µM.
Compound `N#Cc1c(NC(=O)C(F)(F)C(F)(F)C(F)(F)C(F)(F)C(=O)Nc2sc3c(c2C#N)CCCCCC3)sc2c1CCCCCC2` has an inhibition (Beta-secretase 1 [1]) of 87% and an IC50 (Beta-secretase 1 [2]) of 12.2 µM.
In the case of `N#Cc1c(NC(=O)COC(=O)CSc2nc(-c3ccccc3)cc(-c3ccccc3)n2)sc2c1CCCC2`, the inhibition (Beta-secretase 1 [1]) is reported as 75% and the IC50 (Beta-secretase 1 [2]) is reported as 34.5 µM.
With `Cc1nc(N/C(=N\C(=O)Nc2ccccc2)NC(=O)Nc2ccccc2)nc2ccccc12` the inhibition (Beta-secretase 1 [1]) was 100%.
`COc1ccc(-c2cc(-c3ccc(Cl)cc3)c(C#N)c(SCC(=O)N(c3ccccc3)c3ccc4ccccc4c3)n2)cc1` gave an inhibition (Beta-secretase 1 [1]) of 68% and an IC50 (Beta-secretase 1 [2]) of 50 µM.
Compound `CCc1nnc(NC(=O)CSc2nc(-c3ccc(F)cc3)cc(-c3ccccc3)c2C#N)s1` has an inhibition (Beta-secretase 1 [1]) of 80% and an IC50 (Beta-secretase 1 [2]) of 50 µM.
`O=C(CSc1nc2ccc(Nc3nc(N4CCCCC4)nc(N4CCCCC4)n3)cc2s1)Nc1ccccc1F` gave an inhibition (Beta-secretase 1 [1]) of 90% and an IC50 (Beta-secretase 1 [2]) of 10.2 µM.
With `Cc1cc(C)nc(N/C(=N\C(=O)N2c3ccccc3Sc3ccccc32)Nc2cccc([N+](=O)[O-])c2)n1` the inhibition (Beta-secretase 1 [1]) was 80% and the IC50 (Beta-secretase 1 [2]) was 28.6 µM.
In the case of `CC[C@H](C)[C@H](NC(=O)[C@H](CCC(=O)O)NC(=O)[C@H](CCC(=O)O)NC(=O)[C@@H](NC(=O)[C@@H](N)CCCCN)[C@@H](C)O)C(=O)N[C@@H](CO)C(=O)N[C@@H](CCC(=O)O)C(=O)N[C@H](C(=O)N[C@@H](CC(N)=O)C(=O)N[C@@H](CC(C)C)[C@@H](O)CC(=O)N[C@H](C(=O)N[C@@H](C)C(=O)N[C@@H](CCC(=O)O)C(=O)N[C@@H](Cc1ccccc1)C(=O)O)C(C)C)C(C)C` (HELM PEPTIDE1{K.T.E.E.I.S.E.V.N.[CC(C)C[C@H](N[*:1])[C@@H](O)CC(=O)[*:2]].V.A.E.F}$$$$V2.0), the inhibition (Beta-secretase 1 [1]) is reported as 100% and the IC50 (Beta-secretase 1 [2]) is reported as 0.12 µM.
`N#Cc1c(-c2ccccc2)cc(-c2ccccc2)nc1SCC(=O)Nc1cccc([N+](=O)[O-])c1` showed an inhibition (Beta-secretase 1 [1]) of 100% and an IC50 (Beta-secretase 1 [2]) of 20 µM.
Work on `O=C(CSc1nnc(Cc2c[nH]c3ccccc23)n1Cc1ccccc1)c1c[nH]c2ccccc12` yielded an inhibition (Beta-secretase 1 [1]) of 75% and an IC50 (Beta-secretase 1 [2]) of 100 µM.
`Cc1nc(NC(=NC(=O)Nc2ccccc2)NC(=O)Nc2ccccc2)nc2ccccc12` was tested, and the IC50 (Beta-secretase 1 [2]) was 3 µM.
